Measured values published in US6544541B1, “Devices and compounds for treating arterial restenosis” (Cardiovascular Solutions, Inc., priority 1999, dated 2003).

What was measured:
H4IIE hepatoma cells [1] = experiment: DNA synthesis (3H-thymidine incorporation) in H4IIE cells; type: cell-based
Method: Incorporation of uridine or thymidine was used to define the change in rate of […] synthesis, respectively, in response to a mitogen such as insulin. Specifically, quiescent H4IIE cells were prepared by placing the cultures (in 24-well dishes) into serum-free a-minimal essential medium for 3 days. It is of note that the normal growth media for H4IIE cells is α-MEM containing 10% fetal bovine serum (FBS). After reaching quiescence, the cells were stimulated with 1 μM insulin and incubated for either 6 hours or 24 hours in the presence of 1 μCi/ml ^3H-uridine or ^3H-thymidine, respectively. Cells were subsequently lysed with detergent and the nucleic acids precipitated with 5% trichloroacetic acid. The precipitated material was collected on glass fibre filters and the radioactive content measured by scintillation counting. […] Furthermore, while complete inhibition of DNA synthesis by MIBG is obtained at approximately 20 μM, higher concentrations decrease basal DNA synthesis below control levels.

H4IIE hepatoma cells [2] = experiment: MTT staining of viable cells (cell number); type: cell-based
Method: In this assay, H4IIE cells are plated on 96-well dishes, and incubated in standard growth medium. Separate plates were prepared for comparing the effects of MIBG after 2 or 4 days. At those time points, 200 μl of 5 mg/ml MTT was added to each well, and the cells were incubated an additional 4 hours. The medium was removed and cells were treated with acidified isopropanol and the absorbance read at 570 nm. Increased absorbance is indicative of increases in cell number.

H4IIE cells = experiment: lactate dehydrogenase (LDH) release toxicity assay; type: cell-based; settings: 96 hours; FIG. 5
Method: To address the issue of MIBG toxicity, lactate dehydrogenase (LDH) release was measured after incubation with MIBG or MIBA. Quiescent H4IIE cells were prepared in 96-well dishes and treated with various concentrations of either MIBG or MIBA for 96 hours. To quantify the release of LDH from the cells, which only occurs if the cells are damaged or killed by the treatment, 100 μl of culture medium was transferred to a fresh dish. To this was added 100 μl of dye/catalyst mixture (Boehringer Mannheim cytotoxicity detection kitTM), and the samples were subsequently incubated for 30 minutes at 37° C. Absorbance of the solution was monitored at 490 nm. The colour intensity indicates the relative LDH content in the test samples. […] As a consequence, it is speculated that changes in LDH release may be coupled to non-toxic and reversible alterations in mitochondrial metabolism or membrane integrity as a result of MIBG treatment.

L6 myoblasts = experiment: L6 myoblast differentiation; type: cell-based; settings: 25 μM; 2.5% horse serum; 4 days; FIG. 32
smooth muscle cells [3] = experiment: Boyden chamber smooth muscle cell migration in response to Angiotensin II; type: cell-based; settings: 20 μM; 10 μM Angiotensin II in lower compartment; FIG. 17
Method: Specifically, smooth muscle cells were seeded into the upper chamber of a Boyden chamber, which consists of two compartments that are separated by a permeable membrane. […] Specifically, migration to the lower compartment was determined by counting cells on the underside of the membrane. Data are presented as means ± standard error for six independent determinations.

[4] = test system: porcine coronary arteries; experiment: coronary artery organ culture after balloon angioplasty (neointimal index); settings: 25 μM in culture media over 14 days; FIG. 10
Text: Although smooth muscle cell cultures can be used to determine the ability of a compound to inhibit proliferation, these cells are not good indicators of a compound's ability to prevent restenosis. This statement stems from the fact that several processes, including cell migration, proliferation and synthesis of ECM degrading enzymes, must be coordinately activated in order for restenosis to occur. A novel organ culture system has therefore been developed in order to test the effectiveness of MIBG and other compounds at preventing restenosis (Wilson et al, 1999, Cardiac Res 42: 761-772). In brief, hearts are transported from the abattoir to the laboratory on ice. The left descending coronary artery is exposed and a balloon catheter is inserted past the first bifurcation. The balloon is inflated, and after 1 minute is deflated and withdrawn. The damaged region (approximately 20 mm in length) is excised, cut into 4 pieces of 5 mm and each piece is placed into an individual well of a culture dish. These segments can be maintained in media containing 20% serum for up to 21 days. Upon harvest of the tissue, typically after 14 days, the vessel segments are placed into resin for histological analysis. Sections are prepared from vessel segments after removal of the first 1.5 mm. […] This file is imported into SigmaScan™, and staining in the areas of the intimal and medial layers quantified. […]

[5] = test system: porcine radial artery to coronary artery anastomoses; experiment: bypass graft organ culture, PCNA expression; settings: 25 μM, 14 days in culture; FIG. 18
Method: Analogous to the organ culture model described above, a model of a radial artery to coronary artery bypass graft has been developed. It is of note that the construction of this anastomosis is identical to that used clinically in a bypass operation. Specifically, porcine radial artery to coronary artery anstomoses were conducted and placed into culture for 14 days. Control segments included coronary artery dissected and immediately frozen or incubated for 14 days before freezing. Alternatively, the anastomoses were incubated in the presence of 25 μM MIBG. PCNA (proliferating cell nuclear antigen) was detected by immunostaining after cryosectioning of the vessels. Nuclei were visualized with Hoescht […]. The numbers of nuclei and PCNA positive nuclei were determined and used to quantify the proliferation index.

c-fos = c-fos gene expression by RT-PCR in human smooth muscle cells; type: cell-based; settings: 25 μM MIBG pretreatment (10 minutes), then IGF-1 stimulated 15 minutes
[6] = test system: porcine coronary artery smooth muscle cells
smooth muscle cells [7] = settings: cited from earlier work

meta-iodobenzylguanidine [MIBG]
concentration for complete inhibition of DNA synthesis (H4IIE hepatoma cells [1]; 1 μM insulin, 24 hours, FIG. 2): approximately 20 μM | inhibition of DNA synthesis (thymidine incorporation) (H4IIE hepatoma cells [1]; H4IIE cells): inhibits DNA synthesis | effect on cell number (H4IIE hepatoma cells [2]; 20 μM, 2 or 4 days, FIG. 3): effective in preventing increases in cell number | MTT staining (H4IIE hepatoma cells [2]; 200 μM, up to 96 hours): 60 % of control values | concentration at which increased LDH release is detectable (H4IIE cells): 50 µM | effect on L6 myoblast differentiation (L6 myoblasts): inhibits differentiation of L6 myoblasts at an early stage | smooth muscle cell migration (smooth muscle cells [3]): inhibited smooth muscle cell migration | neointimal index [4]: effectively reduces the neointimal index to control values | increase in PCNA expression compared to segment examined immediately after dissection [5]: < 10 fold | c-fos mRNA levels (c-fos): equivalent to or below basal | levels at which cytotoxic [6]: ≥ 200 µM | decrease of basal DNA synthesis ([6]; MIBG alone, highest concentration tested, FIG. 8): ≤ 40 % of the control | concentrations inhibiting stimulation of DNA and RNA synthesis ([6]; stimulation by angiotensin II and serum, FIGS. 6 and 7): 20 to 50 µM | DNA synthesis (thymidine uptake) (smooth muscle cells [7]): had no effect on DNA synthesis | cell number (smooth muscle cells [7]): prevents an increase in cell number | production of collagen type I (smooth muscle cells [7]): decreased the production of collagen type I
